From publication PMC2362691, “A phase I study of the lipophilic thymidylate synthase inhibitor Thymitaq™ (nolatrexed dihydrochloride) given by 10-day oral administration” (British Journal of Cancer, 1999)
“And” between values parts separate entries of the source, which are not always exact repeats. Equal values may be shown once. Read-outs that look alike come from different tables or passages of the source.

Assays:
[1] = tested on: thymidylate synthase; assay: Plasma deoxyuridine (dUrd) concentrations, pretreatment vs day 10; type: in vivo, cancer patients
[2] = in vivo
[3] = rats fasted before treatment, introduction, no reference given, cited from earlier work
[4] = no reference given, cited from earlier work; for bioavailability of proposed clinical formulation: capsules with microcrystalline cellulose and crospovidone, dosing preceded and followed by water gavage
[5] = parameters: method as in Rafi et al, 1996; conditions: patients, 5-day oral administration; ref Rafi et al, 1996; cited from earlier work
[6] = parameters: method as in Rafi et al, 1995; conditions: continuous 24-h infusion, ref Rafi et al, 1995, cited from earlier work
[7] = cited from earlier work
[8] = cited from earlier work; remark: listed apart in the source
[9] = Phase I study of 10-day oral nolatrexed (6 hourly, every 21 days): toxicity by CTC grade; conditions: 6 hourly for 10 days, repeated at 3-weekly intervals (143 mg m-2 every 6 h)
[10] = parameters: method as in earlier work; conditions: clinical trial, ref Calvert et al, 1986, 1987, Bassendine et al, Cantwell et al, 1988; cited from earlier work
[11] = parameters: method as in Jodrell et al, 1991; conditions: ref Jodrell et al, 1991; cited from earlier work
[12] = 10-day intravenous infusion, 716 mg m-2 day-1, ref Creaven et al (1998)
[13] = 5-day intravenous infusion, ref Rafi et al, 1998

Cc1ccc2nc(N)[nH]c(=O)c2c1Sc1ccncc1.Cl.Cl [nolatrexed, 2-Amino-3,4-dihydro-6-methyl-4-oxo-5-(4-pyridylthio)-quinazoline dihydrochloride]
elevation in plasma dUrd compared with baseline ([1]; 429 mg m-2 day-1, in three out of four patients with data): > 75%
rise of plasma dUrd concentration, median ([1]; day 10 vs pretreatment, 12 out of 23 patients, all dose levels): 90 % of baseline
dose level that could be considered for phase II testing ([2]; human, 10 days): 429 mg m-2 day-1
doses at which thrombocytopenia (grade 1 or 2) occurred ([2]; human, po, 10 days): ≥ 318 mg m^−2day^−1
additional patients with increased sensitivity to sunlight, no apparent rash [2]: five
patients with elevation of serum bilirubin [2]: nine
patients with skin rash [2]: eight
patients who achieved disease stabilization (human, in vivo): three
patients with progressive disease on treatment (ten out of 23 patients had evaluable disease): seven
oral bioavailability ([3]; 20 mg kg-1 (120 mg m-2)): 53%
oral bioavailability ([3]; 40 mg kg-1 (240 mg m-2)): 50%
oral bioavailability ([3]; 80 mg kg-1 (480 mg m-2)): 30%
bioavailability of proposed clinical formulation ([4]; one dog): 70% and 107%
bioavailability of proposed clinical formulation ([4]; second dog): 87%
bioavailability ([4]; dogs fasted overnight, in 5% dextrose by gavage, introduction): > 90%
oral bioavailability [5]: 70–100%
systemic toxicity ([6]; maximum dose administered 1073 mg m-2): no systemic toxicity
local toxicity (phlebitis), CTC grade [6]: 2 CTC grade
patients who completed the dose level [7, 12]: zero out of three
patients with grade 4 myelosuppression [7, 12]: two out of three
patients with dose-limiting myelosupression ([7]; in vivo, iv): one out of four
duration of partial response ([8]; 5-day intravenous infusion, one patient with metastatic colorectal cancer, ref Rafi et al, 1998): 3 months
dose-limiting toxicity [8, 13]: neutropenia
maximum tolerated dose [8, 13]: 904 mg m-2 day-1
recommended phase II dose [8, 13]: 800 mg m-2 day-1
clearance ([8]; supported by median trough values of this study, ref Rafi et al (1998)): dose dependent
maximum tolerated dose [9]: 572 mg m-2 day-1

C#CCN(Cc1ccc2nc(N)[nH]c(=O)c2c1)c1ccc(C(=O)N[C@@H](CCC(=O)O)C(=O)O)cc1 [CB 3717, N10-propargyl-5,8-dideazafolic acid]
toxicity that led to abandoned development [10]: sporadic and unpredictable nephrotoxicity and myelotoxicity

Cc1nc2ccc(CN(C)c3ccc(C(=O)N[C@@H](CCC(=O)O)C(=O)O)s3)cc2c(=O)[nH]1 [raltitrexed]
nephrotoxicity [11]: non-nephrotoxic
